Assay results published in patent publication US10933053B2, “Treating infections with ceftolozane/tazobactam in subjects having impaired renal function” (MERCK SHARP & DOHME CORP., priority 2013, dated 2021).

Key:
[1] = Phase I studies: impact of renal function on PK and safety of ceftolozane/tazobactam; type: in vivo, human; conditions: for median AUC0-∞ increase vs normal renal function / median Cmax increase vs normal renal function: moderate renal impairment; for median AUC0-∞ increase vs dose-normalized exposure in normal renal function / median Cmax increase vs dose-normalized exposure in normal renal function: severe renal impairment
From the text: Male and female subjects, aged 18 to 79 years, with varying degrees of renal function were enrolled in two, prospective, open-label, phase I studies of intravenous ceftolozane/tazobactam. A total of 36 subjects were enrolled into cohorts based on degree of renal function: normal (n=11), mild impairment (n=6), moderate impairment (n=7), severe impairment (n=6), and ESRD on HD (n=6). To ensure subjects with ESRD were receiving effective HD, a target adequacy of HD calculated from the pre- and post-blood urea nitrogen ratios (Kt/V) of at least 1.2 for a minimum of 3 months prior to enrollment was required.
All cohorts received ceftolozane/tazobactam as an intravenous infusion over 1 h. The normal, mild, and moderate renal impairment cohorts received a single dose of ceftolozane/tazobactam 1,000 mg/500 mg; the severe renal impairment cohort received a single dose of ceftolozane/tazobactam 500 mg/250 mg; the ESRD cohort received a dose of ceftolozane/tazobactam 500 mg/250 mg initiated at the end of HD on day 1 and another dose initiated 2 h before HD on day 4. Subjects with ESRD underwent HD for 3 to 4 h using a high-flux membrane as scheduled; average dialysis flow rate was 600 to 800 ml/min. Revaclear hemodialyzers (Gambro, Stockholm, Sweden) were used in 5 subjects (ultrafiltration coefficient 50 to 60 ml/h/mmHg, high flux membrane of 1.4 to 1.8 m^2) and a CT 190G hemodialyzers (Baxter Healthcare, McGaw Park, Ill.) was used in 1 subject (ultrafiltration coefficient 36 ml/h/mmHg, high flux membrane of 1.9 m^2). The average blood flow rate was 400 to 600 ml/min with the exception of one subject with rates between 264 and 400 ml/min.
Plasma concentrations of ceftolozane and tazobactam were measured prior to, during, and following administration of ceftolozane/tazobactam. Blood samples were collected 30 min prior to administration, at the end of administration and at 5, 15, and 30 min and 1, 2, 3, 5, 7, 9, 11, 15, 25, and 35 h after completion of ceftolozane/tazobactam administration in the normal, mild, and moderate renal impairment cohorts. Severe renal impairment and ESRD cohorts off HD had samples taken 30 min prior to administration and at 0.5, 1, 1.5, 2, 3, 6, 9, 12, 24, 36, and 48 h after the start of administration. On the day of and following HD, the subjects with ESRD had samples taken 30 min prior to administration and at 0.5, 1, 1.5, 2, 3, 4, 5, 6, 9, 12, 24, 36, and 44 h after the start of the administration. The entire dialysate was collected at each of the following intervals: 0 to 1, 1 to 2, 2 to 3, and 3 h to the end of dialysis. Urine for PK analysis was obtained in the normal, mild, and moderate cohorts at 0 to 2, 2 to 4, 4 to 8, 8 to 12, 12 to 24, and 24 to 36 h after the start of ceftolozane/tazobactam administration. In the ESRD and severe renal impairment cohorts, urine was collected during the confinement period pre-dose, 0 to 24 h, and 24 to 48 h after the start of the administration, unless the subject was anuric. A validated LC/MS/MS method was utilized to analyze all plasma, urine, and dialysate samples for ceftolozane and tazobactam (MicroConstants Inc., San Diego, Calif.) (4). The lower limit of quantification (LLOQ) in plasma was 0.25 μg/ml for ceftolozane and 0.1 μg/ml for tazobactam. The assay was linear between 0.25 and 150 μg/ml for ceftolozane and between 0.1 and 50 μg/ml for tazobactam. […] The LLOQ in dialysate for both ceftolozane and tazobactam was 1 ng/ml and the assay was linear between 1 and 500 ng/ml. […] The LLOQ for ceftolozane and tazobactam in urine was 5 and 10 μg/ml, respectively, and the assay was linear between 5 and 5,000 μg/ml for ceftolozane and between 10 and 10,000 μg/ml for tazobactam.

[2] = subjects with normal renal function; cited from earlier work
[3] = Pharmacokinetics of ceftolozane/tazobactam in healthy adults, single and multiple IV doses; conditions: for Cmax: mean (CV %); for Tmax: median (minimum, maximum)
From the text: The intravenous formulation of CXA-201 can be prepared by reconstituting a fixed dose combination mixture of two active components (ceftolozane and tazobactam), and intravenously administering the reconstituted pharmaceutical composition. The pharmacokinetic (PK) profile of ceftolozane/tazobactam has been studied in several preclinical and clinical studies.
The pharmacokinetic (PK) profile of ceftolozane/tazobactam has been studied in several preclinical and clinical studies.

clinical = conditions: human, in vivo; for Tmax / clearance / Vd / half-life: both sexes; for clearance: CL; for clearance / Vd: mean (CV %); for Vd: Vss; for half-life: t1/2, mean (CV %); for AUC higher in females compared to males / CL, mean (CV %) / Vss, mean (CV %) / t1/2, mean (CV %) / tmax, median (minimum, maximum): both
Protocol: This TQT study was a single-center, prospective, randomized, double-blind, double-dummy, placebo and active controlled, 4-way crossover study that evaluated a single therapeutic 1.5 g and a single supratherapeutic 4.5 g dose of ceftolozane/tazobactam compared with placebo. Moxifloxacin 400 mg, given orally, was used as a positive control. All subjects received study drug on 4 dosing days (Day 1, Day 5, Day 9, and Day 13) in a crossover fashion with a 3-day wash-out period between doses. Healthy men and women were randomized on a 1:1:1:1 basis to 1 of 4 dosing sequences.
Electrocardiograms were recorded (triplicate measurements) over 24 hours on Day 1, Day 5, Day 9, and Day 13 using a 12-lead Holter monitor. Blood samples for determination of ceftolozane, tazobactam, and the M1 metabolite of tazobactam levels were obtained at prespecified time intervals prior to and following each electrocardiogram (ECG) reading on dosing days. Plasma levels of ceftolozane, tazobactam, and its metabolite M1 were determined by LC/MS/MS assay.

SMILES: C[C@]1(Cn2ccnn2)[C@H](C(=O)O)N2C(=O)C[C@H]2S1(=O)=O [Tazobactam, tazobactam]
- median AUC0-∞ increase vs normal renal function [1]: 2.2 fold
- median Cmax increase vs normal renal function [1]: 1.6 fold
- median AUC0-∞ increase vs dose-normalized exposure in normal renal function [1]: 3.8 fold
- median Cmax increase vs dose-normalized exposure in normal renal function [1]: 1.9 fold
- median daily steady-state AUC [2]: 89.4 µg·h/mL
- excreted in the urine as the unchanged parent drug ([3]; healthy volunteers): 80%
- half-life ([3]; human, in vivo, intravenous, terminal elimination half-life (t1/2β), healthy volunteers / normal renal function): ~1 h
- AUC(0-t) ([3]; human, plasma, intravenous, 1.5 g): 24.4 µg·h/mL
- Cmax ([3]; human, plasma, intravenous, 1.5 g, 1.5 g q8h 1-hour infusion, healthy adults, Day 1): 18400 ng/mL
- Cmax ([3]; human, plasma, intravenous, 1.5 g, 1.5 g q8h 1-hour infusion, healthy adults, Day 10): 18000 ng/mL
- half-life ([3]; human, plasma, intravenous, 1.5 g, t1/2, mean (CV %), 1.5 g q8h, healthy adults, Day 10): 1.03 h
- Tmax ([3]; human, plasma, intravenous, 1.5 g, 1.5 g q8h, healthy adults, Day 1): 1.02 h
- half-life ([3]; human, plasma, intravenous, terminal elimination half-life (t1/2β), healthy volunteers / normal renal function): ~1 h
- excreted in the urine as unchanged parent drug ([3]; single 1.5 g IV dose of CXA-201, healthy male adults): More than 80%
- Tmax (clinical): 0.667 h
- clearance (clinical): 368 mL/min
- Vd (clinical): 18.2 L
- half-life (clinical): 0.87 h
- AUC higher in females compared to males (clinical): 19%
- CL, mean (CV %) (clinical): 21.2 (19) L/h
- Vss, mean (CV %) (clinical): 19.3 (22) L
- t1/2, mean (CV %) (clinical): 1.05 (17) h
- tmax, median (minimum, maximum) (clinical): 0.667 (0.667, 1.17) h

SMILES: Cn1c(N)c(NC(=O)NCCN)c[n+]1CC1=C(C(=O)O)N2C(=O)[C@@H](NC(=O)/C(=N\OC(C)(C)C(=O)O)c3nsc(N)n3)[C@H]2SC1 [Ceftolozane, (6R,7R)-3-[(5-amino-4-{[(2-aminoethyl)carbamoyl]amino}-1-methyl-1H-pyrazol-2-ium-2-yl)methyl]-7-({(2Z)-2-(5-amino-1,2,4-thiadiazol-3-yl)-2-[(1-carboxy-1-methylethoxy)imino]acetyl}amino)-8-oxo-5-thia-1-azabicyclo[4.2.0]oct-2-ene-2-carboxylate]
- median AUC0-∞ increase vs normal renal function [1]: 2.5 fold
- median Cmax increase vs normal renal function [1]: 1.2 fold
- median AUC0-∞ increase vs dose-normalized exposure in normal renal function [1]: 4.4 fold
- median Cmax increase vs dose-normalized exposure in normal renal function [1]: 1.3 fold
- median daily steady-state AUC [2]: 690 µg·h/mL
- AUC(0-t) ([3]; human, in vivo): 172 µg·h/mL
- CL renal ([3]; human, in vivo): 56.8 to 112 mL/min
- Cmax, mean (CV %) ([3]; human, in vivo): 74.4 (14) μg/mL
- clearance ([3]; human, in vivo): 68.3 to 112 mL/min
- t1/2, mean (CV %) ([3]; human, in vivo): 3.12 (22) h
- tmax, median (minimum, maximum) ([3]; human, in vivo): 1.07 (1.0, 1.1) h
- Cmax ([3]; human, in vivo): 69100 ng/mL
- half-life ([3]; human, in vivo, t1/2, mean (CV %)): 2.77 h
- half-life ([3]; human, in vivo, terminal elimination half-life (t1/2β)): ~2.5 h
- Tmax ([3]; human, in vivo): 1.02 h
- excreted in the urine as unchanged parent drug ([3]; male, human, in vivo, iv): greater than 95%
- Tmax (clinical): 0.667 h
- clearance (clinical): 92.8 mL/min
- Vd (clinical): 13.5 L
- half-life (clinical): 2.29 h
- AUC higher in females compared to males (clinical): 22%
- CL, mean (CV %) (clinical): 5.50 (17) L/h
- Vss, mean (CV %) (clinical): 13.7 (20) L
- t1/2, mean (CV %) (clinical): 2.72 (21) h
- tmax, median (minimum, maximum) (clinical): 0.667 (0.667, 1.18) h
